Assay results from ChEMBL document CHEMBL1201862, “PubChem BioAssay data set” (2004).
The source made the active and inactive calls.

Columns and labels:
[1] = biological target: Lysosomal acid glucosylceramidase (Homo sapiens, UniProt P04062); test: Dose response cell-based high throughput screening assay to identify enhancers of beta-glucosidase activity. [Related pubchem assays: 784 ]; assay type: functional
Cytochrome P450 2D6 = Cytochrome P450 2D6 (Homo sapiens, UniProt P10635); test: qHTS Assay for Inhibitors and Substrates of Cytochrome P450 2D6. [Related pubchem assays: 410 ]; assay type: ADME; settings: read-out: Potency
[2] = biological target: Mothers against decapentaplegic homolog 3 (Homo sapiens, UniProt P84022); test: blockers of Smad3 complex formation in lysate – cell lysate, secondary confirmation, chemiluminescent ELISA, HEK293 lysate, dose response (AID 1058); assay type: functional
[3] = biological target: T1, Eukaryotic translation initiation factor 2-alpha kinase 3 (Homo sapiens, UniProt Q9NZJ5); test: Dose response cell-based high-throughput screening assay to measure PERK inhibition. [Related pubchem assays: 1416 ]; assay type: functional
[4] = biological target: T1, Eukaryotic translation initiation factor 2-alpha kinase 3; test: Counterscreen assay for PERK inhibitors: Dose response cell-based high throughput screening assay to measure inhibition of PERK at 6 hours. [Related pubchem assays: 1522, 1416 ]; assay type: functional
Aspartyl aminopeptidase = Aspartyl aminopeptidase (Plasmodium falciparum 3D7, UniProt Q8I2J3)
Procathepsin L = Procathepsin L (Homo sapiens, UniProt P07711)
[5] = biological target: Dual specificity tyrosine-phosphorylation-regulated kinase 1A (Rattus norvegicus, UniProt Q63470); assay type: biochemical, Homo sapiens
[6] = biological target: T2, Rac GTPase-activating protein 1 (Homo sapiens, UniProt Q9H0H5); test: blockers of MgcRacGAP-driven Rac1 GTP hydrolysis – biochemical, ADP Hunter fluorescence, primary and confirmatory, confirmation (AID 624330); assay type: functional
T2 sequence (Q9H0H5 whole entry): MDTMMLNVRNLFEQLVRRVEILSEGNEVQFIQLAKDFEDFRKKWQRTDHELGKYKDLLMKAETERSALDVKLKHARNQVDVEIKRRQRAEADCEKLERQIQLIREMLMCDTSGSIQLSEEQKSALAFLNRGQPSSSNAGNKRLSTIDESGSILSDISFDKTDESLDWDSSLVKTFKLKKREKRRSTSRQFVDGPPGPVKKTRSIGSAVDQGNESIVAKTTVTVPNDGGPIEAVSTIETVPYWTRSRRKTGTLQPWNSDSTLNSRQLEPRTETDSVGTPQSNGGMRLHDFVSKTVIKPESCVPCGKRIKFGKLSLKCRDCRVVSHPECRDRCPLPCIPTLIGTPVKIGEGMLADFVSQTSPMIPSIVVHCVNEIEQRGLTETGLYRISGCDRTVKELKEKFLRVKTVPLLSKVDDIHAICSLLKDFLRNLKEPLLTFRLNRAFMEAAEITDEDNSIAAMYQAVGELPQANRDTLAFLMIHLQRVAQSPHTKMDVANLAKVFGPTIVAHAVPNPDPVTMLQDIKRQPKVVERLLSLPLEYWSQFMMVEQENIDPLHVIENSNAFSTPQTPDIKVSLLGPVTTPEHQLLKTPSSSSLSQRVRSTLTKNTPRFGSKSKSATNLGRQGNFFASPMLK

Large T antigen = Large T antigen (Simian virus 40, UniProt P03070); assay type: functional, Betapolyomavirus macacae;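 also: Confirmatory-stage PubChem screen for compounds that inhibit SV40 T antigen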
NS3 = NS3 (Hepatitis C virus, UniProt A3EZJ3); test: PubChem AID 2173; design: species or system Hepacivirus hominis
[7] = biological target: C-C chemokine receptor type 6 (Homo sapiens, UniProt P51684); test: antagonism of CCR6 beta-arrestin recruitment – cell-based, luminescent beta-arrestin readout, dose response (AID 504728); assay type: functional
Beta-galactosidase = Beta-galactosidase (Escherichia coli, UniProt Q8VNN2); test: detection-enzyme interference by beta-gal modulators – biochemical, E. coli enzyme, set 3, artefact control for CCR6 antagonist project, dose response (AID 504712); assay type: functional
[8] = biological target: Heat shock protein HSP 90-alpha (Homo sapiens, UniProt P07900); assay type: functional, organism-based
[9] = biological target: T3, High affinity choline transporter 1 (Homo sapiens, UniProt Q9GZV3); test: human choline transporter blockers, potency – cell-based, 5-point CRC, membrane potential dye, dose response (AID 504840); assay type: functional
T3 sequence (Q9GZV3 whole entry): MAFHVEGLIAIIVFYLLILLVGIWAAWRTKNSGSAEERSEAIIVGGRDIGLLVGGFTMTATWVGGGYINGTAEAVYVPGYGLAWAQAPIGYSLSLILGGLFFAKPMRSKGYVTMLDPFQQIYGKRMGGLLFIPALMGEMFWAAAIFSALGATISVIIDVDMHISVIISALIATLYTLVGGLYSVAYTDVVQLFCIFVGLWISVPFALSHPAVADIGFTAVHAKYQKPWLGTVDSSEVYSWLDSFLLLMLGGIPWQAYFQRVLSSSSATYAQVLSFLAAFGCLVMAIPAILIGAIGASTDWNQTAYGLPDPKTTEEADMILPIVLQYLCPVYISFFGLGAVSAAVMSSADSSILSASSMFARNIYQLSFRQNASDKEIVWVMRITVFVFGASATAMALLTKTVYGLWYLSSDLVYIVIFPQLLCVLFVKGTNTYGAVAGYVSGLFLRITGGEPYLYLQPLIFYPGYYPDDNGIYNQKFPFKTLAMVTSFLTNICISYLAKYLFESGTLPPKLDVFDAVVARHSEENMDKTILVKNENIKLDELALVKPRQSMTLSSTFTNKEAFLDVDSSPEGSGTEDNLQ

[10] = biological target: G2/mitotic-specific cyclin-B1 (Homo sapiens, UniProt P14635); test: Counterscreen assay for inhibitors of Wee1 degradation: dose response cell-based assay to identify inhibitors of cyclin B degradation. [Related pubchem assays: 1410, 1321 ]; assay type: functional
Wee1-like protein kinase = Wee1-like protein kinase (Homo sapiens, UniProt P30291); test: Dose Response Cell-based Assay for Inhibitors of Wee1 Degradation. [Related pubchem assays: 1410, 1321 ]; assay type: functional
[11] = luciferase reporter signal suppression in cells – H4 neuroglioma cells, luminescence, dose response (AID 1990); assay type: functional, cell-based
[12] = luciferase reporter signal reduction – luminescence, H4-C neuroglioblastoma cells, dose response (AID 2458); assay type: functional, cell-based;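 also: H4 neuroglioblastoma cells stably carrying a luciferase reporter gene fusion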
cells = assay type: functional, cell-based
[13] = Luminescence Cell-Based Dose Response HTS to Identify Inhibitors of 5'UTR Stem-Loop Driven Prion Protein mRNA Translation in H4 Neuroglioblastoma Cells. [Related pubchem assays: 1827 (Project Summary), 1813 (Primary HTS)]; assay type: functional
[14] = alpha-synuclein stem-loop luciferase translation blockers – H4 neuroglioma cells, luminescence, confirmation (AID 1988); assay type: functional, cell-based
[15] = alpha-synuclein stem-loop translation blockers – luminescence, H4 neuroglioblastoma cells, dose confirmation, confirmation (AID 2454); assay type: functional, cell-based;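 also: H4 neuroglioblastoma cells carrying an alpha-synuclein 5'UTR luciferase reporter; potency for inhibition of the luciferase signal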

T1 sequence (Q9NZJ5 whole entry): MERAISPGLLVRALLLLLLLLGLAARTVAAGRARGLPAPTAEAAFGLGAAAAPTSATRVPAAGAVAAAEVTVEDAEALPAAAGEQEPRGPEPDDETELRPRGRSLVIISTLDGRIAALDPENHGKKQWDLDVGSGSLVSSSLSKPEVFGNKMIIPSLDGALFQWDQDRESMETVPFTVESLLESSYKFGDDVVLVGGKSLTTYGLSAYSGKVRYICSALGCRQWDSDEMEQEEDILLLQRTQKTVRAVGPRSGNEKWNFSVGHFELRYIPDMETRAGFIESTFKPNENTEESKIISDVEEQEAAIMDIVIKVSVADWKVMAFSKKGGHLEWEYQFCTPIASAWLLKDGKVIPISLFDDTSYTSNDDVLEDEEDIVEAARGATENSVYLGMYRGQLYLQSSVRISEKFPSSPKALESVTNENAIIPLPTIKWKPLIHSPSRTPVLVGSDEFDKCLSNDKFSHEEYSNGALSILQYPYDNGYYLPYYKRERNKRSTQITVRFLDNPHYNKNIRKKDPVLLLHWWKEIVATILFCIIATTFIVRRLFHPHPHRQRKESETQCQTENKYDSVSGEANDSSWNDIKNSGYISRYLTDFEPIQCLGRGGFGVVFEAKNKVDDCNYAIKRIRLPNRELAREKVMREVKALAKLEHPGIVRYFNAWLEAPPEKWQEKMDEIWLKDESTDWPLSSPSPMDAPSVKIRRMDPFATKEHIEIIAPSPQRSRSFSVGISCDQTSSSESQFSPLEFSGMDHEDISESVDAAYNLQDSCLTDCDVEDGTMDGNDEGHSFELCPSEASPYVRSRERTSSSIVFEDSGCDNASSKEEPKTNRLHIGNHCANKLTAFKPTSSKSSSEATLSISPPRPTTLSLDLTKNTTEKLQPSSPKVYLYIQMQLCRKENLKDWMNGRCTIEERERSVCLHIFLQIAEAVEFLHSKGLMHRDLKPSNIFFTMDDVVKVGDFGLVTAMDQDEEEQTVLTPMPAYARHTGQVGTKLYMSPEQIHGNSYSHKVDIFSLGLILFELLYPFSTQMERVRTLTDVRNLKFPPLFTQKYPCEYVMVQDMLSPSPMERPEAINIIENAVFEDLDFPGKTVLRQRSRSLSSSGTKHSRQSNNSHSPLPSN
Sequence of Cytochrome P450 2D6 (P10635 whole entry): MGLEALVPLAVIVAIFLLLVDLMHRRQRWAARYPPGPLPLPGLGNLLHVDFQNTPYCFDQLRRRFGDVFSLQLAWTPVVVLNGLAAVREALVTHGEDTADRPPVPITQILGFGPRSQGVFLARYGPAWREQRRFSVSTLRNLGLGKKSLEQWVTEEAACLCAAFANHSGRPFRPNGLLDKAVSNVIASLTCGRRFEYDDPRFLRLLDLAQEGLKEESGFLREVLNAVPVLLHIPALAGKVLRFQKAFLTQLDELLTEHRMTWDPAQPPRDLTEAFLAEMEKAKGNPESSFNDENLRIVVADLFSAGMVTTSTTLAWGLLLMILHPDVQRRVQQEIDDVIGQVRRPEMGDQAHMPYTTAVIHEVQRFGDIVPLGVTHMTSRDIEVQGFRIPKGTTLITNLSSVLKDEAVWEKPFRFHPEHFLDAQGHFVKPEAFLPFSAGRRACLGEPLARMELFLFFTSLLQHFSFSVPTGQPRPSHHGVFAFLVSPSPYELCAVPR
Sequence of Beta-galactosidase (Q8VNN2 whole entry): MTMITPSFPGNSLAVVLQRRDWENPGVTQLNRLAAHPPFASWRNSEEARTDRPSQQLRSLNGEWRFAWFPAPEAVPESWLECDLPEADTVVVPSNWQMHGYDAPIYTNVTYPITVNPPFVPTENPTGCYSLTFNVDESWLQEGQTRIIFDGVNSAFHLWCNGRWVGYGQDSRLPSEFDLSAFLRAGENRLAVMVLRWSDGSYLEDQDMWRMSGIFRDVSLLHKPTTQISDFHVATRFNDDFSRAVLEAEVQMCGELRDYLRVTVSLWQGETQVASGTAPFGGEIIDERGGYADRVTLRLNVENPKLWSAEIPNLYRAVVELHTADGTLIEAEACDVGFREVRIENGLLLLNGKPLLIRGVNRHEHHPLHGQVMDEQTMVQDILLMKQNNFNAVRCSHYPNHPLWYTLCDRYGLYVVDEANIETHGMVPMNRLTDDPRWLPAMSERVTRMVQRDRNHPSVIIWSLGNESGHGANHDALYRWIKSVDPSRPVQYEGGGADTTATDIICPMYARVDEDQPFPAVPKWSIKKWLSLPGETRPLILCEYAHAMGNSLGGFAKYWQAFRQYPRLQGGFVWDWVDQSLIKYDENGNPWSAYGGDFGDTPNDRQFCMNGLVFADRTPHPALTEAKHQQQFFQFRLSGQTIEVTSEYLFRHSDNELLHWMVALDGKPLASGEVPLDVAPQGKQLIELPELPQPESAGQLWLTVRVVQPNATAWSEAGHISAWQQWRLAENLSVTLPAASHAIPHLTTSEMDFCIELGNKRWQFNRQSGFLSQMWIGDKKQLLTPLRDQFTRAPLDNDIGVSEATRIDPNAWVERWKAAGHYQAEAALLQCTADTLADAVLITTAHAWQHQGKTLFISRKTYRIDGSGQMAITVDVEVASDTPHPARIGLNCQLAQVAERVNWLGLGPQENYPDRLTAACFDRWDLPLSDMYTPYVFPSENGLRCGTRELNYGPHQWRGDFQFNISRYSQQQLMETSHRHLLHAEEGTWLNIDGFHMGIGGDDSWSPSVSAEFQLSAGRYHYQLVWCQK
Sequence of Large T antigen (P03070 whole entry): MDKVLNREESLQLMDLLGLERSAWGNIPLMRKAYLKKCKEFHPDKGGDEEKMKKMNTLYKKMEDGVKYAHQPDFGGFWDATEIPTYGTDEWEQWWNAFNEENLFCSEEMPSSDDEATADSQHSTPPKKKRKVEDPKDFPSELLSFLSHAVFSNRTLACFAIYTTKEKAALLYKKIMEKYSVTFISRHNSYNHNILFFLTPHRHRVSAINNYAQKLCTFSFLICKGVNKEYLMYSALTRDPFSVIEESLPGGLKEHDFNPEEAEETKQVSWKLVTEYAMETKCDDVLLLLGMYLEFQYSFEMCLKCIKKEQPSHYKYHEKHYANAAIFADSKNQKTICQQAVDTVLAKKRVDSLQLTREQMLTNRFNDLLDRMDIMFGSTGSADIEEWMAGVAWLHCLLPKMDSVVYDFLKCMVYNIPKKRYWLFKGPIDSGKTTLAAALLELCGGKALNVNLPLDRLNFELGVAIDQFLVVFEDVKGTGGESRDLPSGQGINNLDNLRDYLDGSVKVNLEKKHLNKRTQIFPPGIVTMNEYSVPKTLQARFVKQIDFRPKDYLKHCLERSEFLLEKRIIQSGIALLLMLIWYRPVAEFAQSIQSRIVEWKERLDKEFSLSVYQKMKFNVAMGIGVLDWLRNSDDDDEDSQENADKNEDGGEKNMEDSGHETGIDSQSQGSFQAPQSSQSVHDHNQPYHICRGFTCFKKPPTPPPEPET
Sequence of C-C chemokine receptor type 6 (P51684 whole entry): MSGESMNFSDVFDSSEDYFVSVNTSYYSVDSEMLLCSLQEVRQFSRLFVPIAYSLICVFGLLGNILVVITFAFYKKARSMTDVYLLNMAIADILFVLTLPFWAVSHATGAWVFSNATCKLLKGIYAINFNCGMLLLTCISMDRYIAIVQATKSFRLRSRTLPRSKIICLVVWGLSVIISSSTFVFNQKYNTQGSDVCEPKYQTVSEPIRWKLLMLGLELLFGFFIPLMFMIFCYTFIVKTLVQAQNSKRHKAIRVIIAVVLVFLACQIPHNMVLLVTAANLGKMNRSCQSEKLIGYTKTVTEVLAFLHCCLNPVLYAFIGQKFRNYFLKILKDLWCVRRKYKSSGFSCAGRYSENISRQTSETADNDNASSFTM
Sequence of G2/mitotic-specific cyclin-B1 (P14635 whole entry): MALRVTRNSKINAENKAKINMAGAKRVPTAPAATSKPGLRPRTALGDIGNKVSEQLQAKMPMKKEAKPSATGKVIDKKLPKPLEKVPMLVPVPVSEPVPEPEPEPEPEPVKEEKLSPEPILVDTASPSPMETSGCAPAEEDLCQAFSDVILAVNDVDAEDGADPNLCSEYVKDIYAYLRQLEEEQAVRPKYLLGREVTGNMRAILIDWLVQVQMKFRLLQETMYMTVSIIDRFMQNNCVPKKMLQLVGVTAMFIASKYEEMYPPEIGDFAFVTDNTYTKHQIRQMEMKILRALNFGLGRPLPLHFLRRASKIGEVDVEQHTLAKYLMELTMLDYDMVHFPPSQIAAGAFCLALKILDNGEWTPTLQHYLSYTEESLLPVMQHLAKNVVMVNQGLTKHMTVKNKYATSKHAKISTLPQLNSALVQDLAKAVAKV
Sequence of Lysosomal acid glucosylceramidase (P04062 whole entry): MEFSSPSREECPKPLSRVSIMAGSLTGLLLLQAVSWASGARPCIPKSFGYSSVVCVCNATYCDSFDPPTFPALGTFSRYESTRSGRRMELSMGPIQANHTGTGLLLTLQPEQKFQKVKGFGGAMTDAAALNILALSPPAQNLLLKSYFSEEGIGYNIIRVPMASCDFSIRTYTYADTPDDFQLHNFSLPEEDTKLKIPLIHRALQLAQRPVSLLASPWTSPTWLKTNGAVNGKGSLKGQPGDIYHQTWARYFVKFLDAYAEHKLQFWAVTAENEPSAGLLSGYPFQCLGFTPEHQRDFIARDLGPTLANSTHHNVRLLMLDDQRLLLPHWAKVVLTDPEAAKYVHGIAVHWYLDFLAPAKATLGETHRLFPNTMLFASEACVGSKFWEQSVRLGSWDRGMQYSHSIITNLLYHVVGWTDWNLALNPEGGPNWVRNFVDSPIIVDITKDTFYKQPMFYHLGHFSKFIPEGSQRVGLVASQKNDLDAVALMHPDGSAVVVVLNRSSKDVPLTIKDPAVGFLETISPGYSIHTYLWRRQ
Sequence of Procathepsin L (P07711 whole entry): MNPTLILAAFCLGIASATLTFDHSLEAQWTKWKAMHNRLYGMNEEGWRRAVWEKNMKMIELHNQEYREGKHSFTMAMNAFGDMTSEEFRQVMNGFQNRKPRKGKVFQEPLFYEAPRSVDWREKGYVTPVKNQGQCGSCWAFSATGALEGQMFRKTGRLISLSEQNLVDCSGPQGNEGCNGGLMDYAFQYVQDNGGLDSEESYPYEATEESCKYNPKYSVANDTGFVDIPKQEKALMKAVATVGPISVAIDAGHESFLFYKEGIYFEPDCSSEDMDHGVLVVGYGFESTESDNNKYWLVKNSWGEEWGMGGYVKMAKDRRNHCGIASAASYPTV

In the case of `COC(=O)c1cn(NC(=O)c2ccncc2)c(=O)c2ccccc12`, the EC50 [1] is reported as > 50 µM (not active).
For `COc1cccc(-c2oc3ccccc3c(=O)c2O)c1`, the AC50 (Cytochrome P450 2D6) was 31.6 µM (inconclusive).
With `COc1cc(C(c2cc3c(cc2O)OCO3)N2CCOCC2)ccc1O` (stereo not drawn) the IC50 [2] was 10.1 µM (not active).
With `Cc1c2cnn(-c3ccccc3)c(=O)c2c(C)n1CCCC(=O)NCCN1CCN(C)CC1` the EC50 [3] was > 55.7 µM (not active) and the EC50 [4] was > 55.7 µM (not active).
With `Oc1ccc(-c2csc(-c3cccnc3)n2)cc1O` the IC50 (Aspartyl aminopeptidase) was 1.81 µM (active), the IC50 (Procathepsin L) was > 59.6 µM (not active) and the AC50 [5] was 7.37 µM (active). For the same compound, the IC50 [6] was 9.47 µM (active).
For `O=[N+]([O-])c1cc(Cc2ccccc2)cc(/C=N/c2ccc(N3CCOCC3)cc2)c1O`, the IC50 (Large T antigen) was 2.64 µM (active), the IC50 (NS3) was 7.65 µM (active) and the IC50 [7] was > 66.6 µM (inactive). The IC50 (Beta-galactosidase) was > 66.6 µM (inactive), the AC50 [8] was 4.32 µM (active) and the IC50 [9] was 9.12 µM (active).
In the case of `CCN(CC)S(=O)(=O)c1ccc(C(=O)NCCc2ccccn2)cc1`, the EC50 [10] is reported as > 49.7 µM (not active) and the EC50 (Wee1-like protein kinase) is reported as > 49.7 µM (not active).
With `CC(=O)O[C@@H]1/C=C/[C@](C)(O)C[C@@H](C)C/C=C/[C@H]2[C@H](O)C(C)=C(C)[C@H]3[C@H](Cc4ccccc4)NC(=O)[C@@]123` the EC50 [11] was 0.208 µM (active), the EC50 [12] was 0.577 µM (active) and the EC50 (cells) was 0.895 µM (active). For the same compound, the EC50 [13] was 28.2 µM (active), the EC50 [14] was < 0.1 µM (active) and the EC50 [15] was 0.397 µM (active).
